Data as given in PubChem BioAssay AID248 (DTP/NCI, 2004).
Inconclusive results and toxic doses are left out. No stated cut-off is given here; in the data, active means T/C of 150% or more; inactive means T/C below 125%.

Test system: L1210 leukemia ip in BDF1 mice, survival T/C
Experiment: NCI In Vivo Anticancer Drug Screen. Data for tumor model L1210 Leukemia (intraperitoneal) in B6D2F1 (BDF1) mice
Details: endpoint: mean survival time, higher = longer survival
Procedure, shortened: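 Read-out is survival time, reported as the treated-group measurement over the vehicle-control measurement.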

[1] = dose: 100.0 mg/kg/injection, schedule: Q01DX001 (ip), vehicle: carboxymethylcellulose (CMC)
[2] = dose: 200.0 mg/kg/injection, schedule: Q01DX001 (ip), vehicle: carboxymethylcellulose (CMC)
[3] = dose: 400.0 mg/kg/injection, schedule: Q01DX001 (ip), vehicle: carboxymethylcellulose (CMC)
[4] = dose: 100.0 mg/kg/injection, schedule: Q04DX003 (ip), vehicle: saline
[5] = dose: 100.0 mg/kg/injection, schedule: Q01DX001 (ip), vehicle: saline with Tween-80
[6] = dose: 200.0 mg/kg/injection, schedule: Q01DX001 (ip), vehicle: saline with Tween-80
[7] = dose: 400.0 mg/kg/injection, schedule: Q01DX001 (ip), vehicle: saline with Tween-80
[8] = dose: 100.0 mg/kg/injection, schedule: Q01DX001 (ip), vehicle: saline
[9] = dose: 200.0 mg/kg/injection, schedule: Q01DX001 (ip), vehicle: saline
[10] = dose: 400.0 mg/kg/injection, schedule: Q01DX001 (ip), vehicle: saline
[11] = dose: 100.0 mg/kg/injection, schedule: Q04DX003 (ip), vehicle: saline with Tween-80
[12] = dose: 200.0 mg/kg/injection, schedule: Q04DX003 (ip), vehicle: saline with Tween-80
[13] = dose: 100.0 mg/kg/injection, schedule: Q04DX002 (ip), vehicle: Klucel (hydroxypropylcellulose) (HPC)
[14] = dose: 200.0 mg/kg/injection, schedule: Q04DX002 (ip), vehicle: Klucel (hydroxypropylcellulose) (HPC)
[15] = dose: 400.0 mg/kg/injection, schedule: Q04DX002 (ip), vehicle: Klucel (hydroxypropylcellulose) (HPC)
[16] = dose: 25.0 mg/kg/injection, schedule: Q01DX009 (ip), vehicle: saline with Tween-80
[17] = dose: 50.0 mg/kg/injection, schedule: Q01DX009 (ip), vehicle: saline with Tween-80
[18] = dose: 100.0 mg/kg/injection, schedule: Q01DX009 (ip), vehicle: saline
[19] = dose: 200.0 mg/kg/injection, schedule: Q04DX003 (ip), vehicle: saline
[20] = dose: 400.0 mg/kg/injection, schedule: Q04DX003 (ip), vehicle: saline

Measured: T/C

COc1ccc2c(c1OC)CN(C)CCc1cc3c(cc1C(=O)C2)OCO3
inactive: [1] 96 % of control | [2] 96 % of control | [3] 100 % of control

CCOP(=S)(N1CCNCC1)N1CCNCC1
inactive: dose: 75.0 mg/kg/injection, schedule: Q01DX001 (ip), vehicle: saline 90 % of control | dose: 75.0 mg/kg/injection, schedule: Q01DX009 (ip), vehicle: Klucel (hydroxypropylcellulose) (HPC) 95 % of control | dose: 150.0 mg/kg/injection, schedule: Q01DX001 (ip), vehicle: saline 92 % of control | dose: 150.0 mg/kg/injection, schedule: Q01DX009 (ip), vehicle: Klucel (hydroxypropylcellulose) (HPC) 120 % of control | dose: 300.0 mg/kg/injection, schedule: Q01DX001 (ip), vehicle: saline 100 % of control

Cc1cccc[n+]1CC(=O)c1ccccc1
inactive: [4] 94 % of control

CCCCSc1nc2ccccc2c(=O)n1-c1ccccc1
inactive: [5] 100 % of control | [6] 103 % of control | [7] 97 % of control

CNNC(=O)c1ccncc1
inactive: dose: 62.0 mg/kg/injection, schedule: Q01DX015 (ip), vehicle: water 91 % of control | dose: 125.0 mg/kg/injection, schedule: Q01DX015 (ip), vehicle: water 98 % of control

Sc1cccc2cccnc12.[Ni]
inactive: dose: 50.0 mg/kg/injection, schedule: Q01DX001 (ip), vehicle: saline 111 % of control | [8] 98 % of control | [9] 98 % of control | [10] 98 % of control

O=C(O)C(Sc1ccc(Cl)cc1)Sc1ccc(Cl)cc1
inactive: dose: 50.0 mg/kg/injection, schedule: Q04DX003 (ip), vehicle: Klucel (hydroxypropylcellulose) (HPC) 103 % of control | dose: 100.0 mg/kg/injection, schedule: Q04DX003 (ip), vehicle: Klucel (hydroxypropylcellulose) (HPC) 103 % of control | dose: 200.0 mg/kg/injection, schedule: Q04DX003 (ip), vehicle: Klucel (hydroxypropylcellulose) (HPC) 95 % of control

CC(C)(C)c1ccc(OS(=O)(=O)c2cccc([N+](=O)[O-])c2)cc1
inactive: [11] 104 % of control | [12] 99 % of control | dose: 400.0 mg/kg/injection, schedule: Q04DX003 (ip), vehicle: saline with Tween-80 106 % of control

COc1ccc(N2C=C(c3ccccc3)CC2=O)cc1
inactive: [13] 94 % of control | [14] 94 % of control | [15] 97 % of control

CN(C)c1ccc2nc3ccc(=O)cc-3sc2c1
inactive: dose: 50.0 mg/kg/injection, schedule: Q04DX002 (ip), vehicle: Klucel (hydroxypropylcellulose) (HPC) 88 % of control | [13] 95 % of control | [14] 92 % of control | [15] 95 % of control

COc1nc2ccccc2c2ccccc12
inactive: dose: 100.0 mg/kg/injection, schedule: Q01DX001 (ip), vehicle: other 105 % of control | dose: 200.0 mg/kg/injection, schedule: Q01DX001 (ip), vehicle: other 102 % of control | dose: 400.0 mg/kg/injection, schedule: Q01DX001 (ip), vehicle: other 107 % of control

Cc1ccc(S(=O)(=O)OC2CCC(N3C(=O)c4ccccc4C3=O)CC2)cc1 (stereo unspecified)
inactive: [5] 100 % of control | [6] 102 % of control | [7] 98 % of control

Nc1cc(Cl)ccc1Nc1ccccc1
inactive: dose: 50.0 mg/kg/injection, schedule: Q01DX001 (ip), vehicle: carboxymethylcellulose (CMC) 101 % of control | [1] 109 % of control | [2] 101 % of control | [3] 101 % of control

CC1C(N)CC2CC1C2(C)C (stereo unspecified)
inactive: dose: 12.5 mg/kg/injection, schedule: Q04DX002 (ip), vehicle: saline 113 % of control | dose: 25.0 mg/kg/injection, schedule: Q04DX002 (ip), vehicle: saline 102 % of control | dose: 50.0 mg/kg/injection, schedule: Q04DX002 (ip), vehicle: saline 102 % of control

[CH3][Pb]([CH3])([CH3])[NH]C#N
inactive: dose: 5.0 mg/kg/injection, schedule: Q04DX003 (ip), vehicle: saline 101 % of control | dose: 10.0 mg/kg/injection, schedule: Q04DX003 (ip), vehicle: saline 86 % of control

NC(N)=NNc1ccccc1
inactive: [16] 115 % of control | [17] 107 % of control | dose: 50.0 mg/kg/injection, schedule: Q01DX009 (ip), vehicle: saline 95 % of control | dose: 100.0 mg/kg/injection, schedule: Q01DX009 (ip), vehicle: saline with Tween-80 86 % of control | [18] 97 % of control

CNS(C)(=O)=O
inactive: [8] 108 % of control | [4] 101 % of control | [9] 106 % of control | [19] 104 % of control | [10] 95 % of control | [20] 106 % of control

CCOC(=O)C1CN(C)CCC1=O (stereo unspecified)
inactive: [8] 108 % of control | [18] 123 % of control | [4] 100 % of control | [9] 101 % of control | dose: 200.0 mg/kg/injection, schedule: Q01DX009 (ip), vehicle: saline 98 % of control | [19] 104 % of control | [10] 97 % of control | dose: 400.0 mg/kg/injection, schedule: Q01DX009 (ip), vehicle: saline 96 % of control | [20] 98 % of control

Nc1c(Cl)cc(S(N)(=O)=O)cc1Cl
inactive: dose: 100.0 mg/kg/injection, schedule: Q01DX009 (ip), vehicle: other 98 % of control | dose: 100.0 mg/kg/injection, schedule: Q04DX003 (ip), vehicle: other 100 % of control | dose: 200.0 mg/kg/injection, schedule: Q01DX009 (ip), vehicle: other 91 % of control | dose: 200.0 mg/kg/injection, schedule: Q04DX003 (ip), vehicle: other 98 % of control | dose: 400.0 mg/kg/injection, schedule: Q04DX003 (ip), vehicle: other 98 % of control

Cc1cc(C)c(N(CC(=O)O)S(=O)(=O)c2ccccc2)c(C)c1Cl
inactive: dose: 50.0 mg/kg/injection, schedule: Q01DX001 (ip), vehicle: Klucel (hydroxypropylcellulose) (HPC) 100 % of control | dose: 100.0 mg/kg/injection, schedule: Q01DX001 (ip), vehicle: Klucel (hydroxypropylcellulose) (HPC) 86 % of control | dose: 200.0 mg/kg/injection, schedule: Q01DX001 (ip), vehicle: Klucel (hydroxypropylcellulose) (HPC) 91 % of control

CN(C)Cc1cc(O)c(CN(C)C)cc1O
inactive: [16] 110 % of control | dose: 25.0 mg/kg/injection, schedule: Q04DX003 (ip), vehicle: saline with Tween-80 88 % of control | [17] 103 % of control | dose: 50.0 mg/kg/injection, schedule: Q04DX003 (ip), vehicle: saline with Tween-80 93 % of control | [11] 96 % of control

CC(=O)Nc1ncnc2c1ncn2Cc1ccccc1
inactive: [11] 99 % of control | [12] 93 % of control
